“And” between values parts separate entries of the source, which are not always exact repeats. Equal values may be shown once. Marks after values point to notes of the source that are not given here. Each block holds one molecule with its values, some of them ahead of it.
Legend:
[1] = molecular target: GPR174 (Homo sapiens, UniProt Q9BXC1); assay: CRE-Luc reporter Gs signaling assay with GPR174; format: cell-based; parameters: host or cells: HEK293 or CHO cell lines (ATCC); settings: pCRE-Luc reporter; for EC50: multiple values = separate experiments
Chain of GPR174 (Q9BXC1 whole entry): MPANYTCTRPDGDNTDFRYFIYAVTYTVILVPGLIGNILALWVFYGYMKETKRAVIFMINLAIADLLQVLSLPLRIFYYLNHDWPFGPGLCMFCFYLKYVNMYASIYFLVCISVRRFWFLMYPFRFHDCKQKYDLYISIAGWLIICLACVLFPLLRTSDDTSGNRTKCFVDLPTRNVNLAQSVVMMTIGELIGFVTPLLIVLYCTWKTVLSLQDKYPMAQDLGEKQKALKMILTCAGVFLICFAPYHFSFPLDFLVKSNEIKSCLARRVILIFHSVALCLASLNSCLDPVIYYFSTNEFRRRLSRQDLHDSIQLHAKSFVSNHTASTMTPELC

[2] = system: human PBMCs; assay: Th1 cytokines in supernatants of stimulated human PBMC, GPR174 inhibitor with adenosine pathway inhibitors (Examples 15, 18-22); format: cell-based; settings: for IFN-γ, ratio relative to vehicle control (Veh column) / IL-2, ratio relative to vehicle control (Veh column) / TNF, ratio relative to vehicle control (Veh column): Cmpd 10 1, ZM 0.1, PBF 0.1, SCH 0.2 μM, ADA 0.75 μg/mL; for IFN-γ, ratio relative to vehicle control (MRS) / IL-2, ratio relative to vehicle control (MRS column) / TNF, ratio relative to vehicle control (MRS column): MRS-1754 1 μM added to the agent(s) of the label, label MRS = MRS alone
Method: Human PBMCs, obtained from a human volunteer donor, were dispensed at density of 1×10^6 cells/well in a 96-well flat-bottom plate and were stimulated in triplicate with 1 μg/mL anti-CD3 antibody (UCHT1) and 0.1 μg/mL anti-CD28 antibody (CD28.2) in the presence of:
Supernatants from these cells were collected at 24 hours post-stimulation and the levels of IFN-γ were determined by ELISA assay. Statistical analysis was carried out using one-way ANOVA with Tukey's post-hoc multiple comparison's correction.
Human PBMCs, obtained from a human volunteer donor (donor 1), were dispensed in X-vivo15 media (Lonza) supplemented with Glutamax, penicillin and streptomycin, at density of 1×10^6 cells/well in a 96-well flat-bottom plate and were stimulated with 1 μg/mL anti-CD3 antibody (UCHT1) and 0.1 μg/mL anti-CD28 antibody (CD28.2) in the presence of:
Supernatants from these cells were collected at 24 hours post-stimulation and the levels of IFN-γ, IL-2 and TNF were determined by ELISA assays.
Human PBMCs, obtained from two individual human volunteer donors (donor 2 and donor 3), were dispensed at density of 1×10^6 cells/well in a 96-well flat-bottom plate and were stimulated with 1 μg/mL anti-CD3 antibody (UCHT1) and 0.1 μg/mL anti-CD28 antibody (CD28.2) in the presence of:
Human PBMCs, obtained from twelve individual human volunteer donors were dispensed at density of 1×10^6 cells/well in a 96-well flat-bottom plate and were stimulated in triplicate with 1 μg/mL anti-CD3 antibody (UCHT1) and 0.1 μg/mL anti-CD28 antibody (CD28.2) in the presence of:
A total of 44 experiments using PBMC from 12 healthy donors were tested (9 donors for GM-CSF), with each donor tested in 1 to 8 separate experiments, depending on the donor (1 to 4 experiments each for GM-CSF). […] Cytokines were detected in supernatants with the Legendplex (Biolegend) or the MSB (MesoScale) platforms. […] One-way ANOVA with Tukey's post-hoc multiple comparisons correction was performed to identify significant differences (FC, mean fold change; ****, p<0.0001, ***, p<0.001; **, p<0.01; *, p<0.05, ns, not significant).
Human PBMC (1×10^6 cells/well in a 96-well flat-bottom plate) obtained from donor 3 and donor 6 were stimulated with 1 μg/mL anti-CD3 antibody (UCHT1) and 0.1 μg/mL anti-CD28 antibody (CD28.2) in the presence of:
Supernatants from these cells were collected at 24 hours post-stimulation and the levels of IFN-γ, IL-2, and TNF were determined with the MSD platform (MesoScale Discovery).
Human PBMC (1×10^6 cells/well in a 96-well flat-bottom plate) obtained from donor 7 were stimulated with 1 μg/mL […] (UCHT1) and 0.1 μg/mL anti-CD28 antibody (CD28.2) in the presence of:
Supernatants from these cells were collected at 24 hours post-stimulation and the levels of IFN-γ, IL-2, TNF and GM-CSF were determined with the MSD platform (MesoScale Discovery).
Supernatants from these cells were collected at 24 hours post-stimulation and the levels of IFN-γ, IL-2 and TNF were determined with the MSD platform (MesoScale Discovery).

- Fold decrease in Gs signaling activity [1]: 3 fold
- EC50 [1]: 1100 nM
Molecule: Cc1ccc(S(=O)(=O)N2CCN(c3cc(N4CCC(C)CC4)c(F)cc3[N+](=O)[O-])CC2)cc1 [compound 14]

- Fold decrease in Gs signaling activity [1]: 14.3 fold
- EC50 [1]: 600 nM
Molecule: CC(C)Oc1ccc(C2C3=C(CCCC3=O)NC3=C2C(=O)c2ccccc23)cc1 (stereo not drawn) [compound 49]

- Fold decrease in Gs signaling activity [1]: 2.8 fold
- EC50 [1]: 4400 nM
Molecule: O=C1CCCC2=C1C(c1cccc(O)c1)C1=C(N2)c2ccccc2C1=O (stereo not drawn) [compound 24]

- Fold decrease in Gs signaling activity [1]: 3.1 fold
- EC50 [1]: 500 nM
Molecule: CCCCCCOc1ccc(C2C3=C(CCCC3=O)NC3=C2C(=O)c2ccccc23)cc1 (stereo not drawn) [compound 52]

- Fold decrease in Gs signaling activity [1]: 1.7 fold
- EC50 [1]: 1600 nM
Molecule: CCOc1cccc(C2C3=C(CCCC3=O)NC3=C2C(=O)c2ccccc23)c1 (stereo not drawn) [compound 51]

- Fold decrease in Gs signaling activity [1]: 5.1 fold
- EC50 [1]: 5200 nM
Molecule: O=C1CCCC2=C1C(c1ccc(N3CCCC3=O)cc1)C1=C(N2)c2ccccc2C1=O (stereo not drawn) [compound 43]

Further lines, the molecule ahead of its results:

Molecule: C=CCOc1ccc(C2C3=C(CCCC3=O)NC3=C2C(=O)c2ccccc23)cc1 (stereo not drawn) [compound 50]
- Fold decrease in Gs signaling activity [1]: 10.1 fold
- EC50 [1]: 1200 nM

Molecule: CC1CCN(c2cc(N3CCN(C(=O)c4cccs4)CC3)c([N+](=O)[O-])cc2F)CC1 [compound 12]
- Fold decrease in Gs signaling activity [1]: 3.9 fold
- EC50 [1]: 400 nM and 700 nM

Molecule: CS(=O)(=O)c1ccc(C2C3=C(CCCC3=O)NC3=C2C(=O)c2ccccc23)cc1 (stereo not drawn) [compound 40]
- Fold decrease in Gs signaling activity [1]: 8.8 fold
- EC50 [1]: 3300 nM

Molecule: O=[N+]([O-])c1cc(F)c(N2CCCCCC2)cc1N1CCN(S(=O)(=O)c2ccccc2)CC1 [compound 53]
- Fold decrease in Gs signaling activity [1]: 3.4 fold
- EC50 [1]: 1800 nM

Molecule: CCCOc1ccc(C2C3=C(CCCC3=O)NC3=C2C(=O)c2ccccc23)cc1 (stereo not drawn) [compound 41]
- Fold decrease in Gs signaling activity [1]: 13.7 fold
- EC50 [1]: 1000 nM

Molecule: S=C(NCc1ccco1)Nc1ccc(I)cc1 [compound 59]
- Human GPR174 CRE Activity: nature of the compound (IA, antagonist, NM) [1]: NM (“NM” refers to “non-modulator.”)

Molecule: COc1cccc(C2C3=C(CCCC3=O)NC3=C2C(=O)c2ccccc23)c1 (stereo not drawn) [compound 28]
- Fold decrease in Gs signaling activity [1]: 1.9 fold
- EC50 [1]: 3600 nM

Molecule: CCOc1ccc(C2C3=C(CCCC3=O)NC3=C2C(=O)c2ccccc23)cn1 (stereo not drawn) [compound 55]
- Fold decrease in Gs signaling activity [1]: 7 fold
- EC50 [1]: 600 nM

Molecule: CCOc1ccc(C2C3=C(CCCC3=O)NC3=C2C(=O)c2ccccc23)cc1OCC (stereo not drawn) [compound 30]
- Fold decrease in Gs signaling activity [1]: 2.2 fold
- EC50 [1]: 3800 nM

Molecule: CC(C)(C)Oc1ccc(C2C3=C(CCCC3=O)NC3=C2C(=O)c2ccccc23)cc1 (stereo not drawn) [compound 44]
- Fold decrease in Gs signaling activity [1]: 4.7 fold
- EC50 [1]: 1300 nM

Molecule: O=C1CCCC2=C1C(c1ccc([N+](=O)[O-])cc1)C1=C(N2)c2ccccc2C1=O (stereo not drawn) [compound 38]
- Fold decrease in Gs signaling activity [1]: 8.6 fold
- EC50 [1]: 2700 nM

B1: ADA: adenosine deaminase, an enzyme that catabolizes adenosine into inosine (protein, UniProt P00813 2-363, looked up)
Adenosine deaminase: AQTPAFDKPKVELHVHLDGSIKPETILYYGRRRGIALPANTAEGLLNVIGMDKPLTLPDFLAKFDYYMPAIAGCREAIKRIAYEFVEMKAKEGVVYVEVRYSPHLLANSKVEPIPWNQAEGDLTPDEVVALVGQGLQEGERDFGVKARSILCCMRHQPNWSPKVVELCKKYQQQTVVAIDLAGDETIPGSSLLPGHVQAYQEAVKSGIHRTVHAGEVGSAEVVKEAVDILKTERLGHGYHTLEDQALYNRLRQENMHFEICPWSSYLTGAWKPDTEHAVIRLKNDQANYSLNTDDPLIFKSTLDTDYQMTKRDMGFTEEEFKRLNINAAKSSFLPEDEKRELLDLLYKAYGMPPSASAGQNL
- IFN-γ, MRS/Veh: ratio in the presence vs. the absence of MRS-1754 ([2]; donor 3): 0.7*
- IL-2, MRS/Veh: ratio in the presence vs. the absence of MRS-1754 ([2]; donor 3): 0.9
- TNF, MRS/Veh: ratio in the presence vs. the absence of MRS-1754 ([2]; donor 3): 0.9
- IFN-γ, ratio relative to vehicle control (Veh column) ([2]; donor 3, no MRS): 1.7* fold
- IL-2, ratio relative to vehicle control (Veh column) ([2]; donor 3, no MRS): 2.2* fold
- TNF, ratio relative to vehicle control (Veh column) ([2]; donor 3, no MRS): 2.2* fold
- IFN-γ, ratio relative to vehicle control (MRS) ([2]; donor 3): 1.1 fold
- IL-2, ratio relative to vehicle control (MRS column) ([2]; donor 3): 1.9* fold
- TNF, ratio relative to vehicle control (MRS column) ([2]; donor 3): 1.9* fold
- IFN-γ, MRS/Veh: ratio in the presence vs. the absence of MRS-1754 ([2]; donor 6): 1.3
- IL-2, MRS/Veh: ratio in the presence vs. the absence of MRS-1754 ([2]; donor 6): 1.0
- TNF, MRS/Veh: ratio in the presence vs. the absence of MRS-1754 ([2]; donor 6): 1.2*
- IFN-γ, ratio relative to vehicle control (Veh column) ([2]; donor 6, no MRS): 1.2 fold
- IL-2, ratio relative to vehicle control (Veh column) ([2]; donor 6, no MRS): 1.3* fold
- TNF, ratio relative to vehicle control (Veh column) ([2]; donor 6, no MRS): 1.2* fold
- IFN-γ, ratio relative to vehicle control (MRS) ([2]; donor 6): 1.5* fold
- IL-2, ratio relative to vehicle control (MRS column) ([2]; donor 6): 1.3* fold
- TNF, ratio relative to vehicle control (MRS column) ([2]; donor 6): 1.4* fold

Reference: patent US20200345725A1, “Methods and Compositions for Treating Cancer” (Omeros Corporation, priority 2019, published 2020)
